# Tests used:
# Type in all cases: functional
# ACHN = assay: Cytotoxicity against Homo sapiens (human) ACHN cells after 48 hr by sulforhodamine B assay
# 786-0 = assay: Cytotoxicity against Homo sapiens (human) 786-0 cells after 48 hr by sulforhodamine B assay; settings: 786-0, 48 h
# SK-OV-3 = assay: Cytotoxicity against Homo sapiens (human) SKOV3 cells after 48 hr by sulforhodamine B assay; settings: SK-OV-3, 48 h
# UACC-62 = assay: Cytotoxicity against Homo sapiens (human) UACC62 cells after 48 hr by sulforhodamine B assay; settings: UACC-62, 48 h
# SK-MEL-28 = assay: Cytotoxicity against Homo sapiens (human) SK-MEL-28 cells after 48 hr by sulforhodamine B assay; settings: SK-MEL-28, 48 h
# U-251 = assay: Cytotoxicity against Homo sapiens (human) U251 cells after 48 hr by sulforhodamine B assay; settings: U-251, 48 h
# T47D = assay: Cytotoxicity against Homo sapiens (human) T47D cells after 48 hr by sulforhodamine B assay
# MDA-MB-435 = assay: Cytotoxicity against Homo sapiens (human) MDA-MB-435 cells after 48 hr by sulforhodamine B assay; settings: MDA-MB-435, 48 h
# BT-549 = assay: Cytotoxicity against Homo sapiens (human) BT549 cells after 48 hr by sulforhodamine B assay; settings: BT-549, 48 h
# Hs-578T = assay: Cytotoxicity against Homo sapiens (human) Hs 578T cells after 48 hr by sulforhodamine B assay
# [1] = Cytotoxicity against Homo sapiens (human) NCI-ADR-RES cells after 48 hr by sulforhodamine B assay
# MDA-MB-231 = assay: Cytotoxicity against Homo sapiens (human) MDA-MB-231 cells after 48 hr by sulforhodamine B assay; settings: MDA-MB-231, 48 h
# MCF7 = assay: Cytotoxicity against Homo sapiens (human) MCF7 cells after 48 hr by sulforhodamine B assay; settings: MCF7, 48 h
# UO-31 = assay: Cytotoxicity against Homo sapiens (human) UO31 cells after 48 hr by sulforhodamine B assay; settings: UO-31, 48 h
# PC-3 = assay: Cytotoxicity against Homo sapiens (human) PC3 cells after 48 hr by sulforhodamine B assay; settings: PC-3, 48 h
# SN12C = assay: Cytotoxicity against Homo sapiens (human) SN12C cells after 48 hr by sulforhodamine B assay
# RXF 393 = assay: Cytotoxicity against Homo sapiens (human) RXF393 cells after 48 hr by sulforhodamine B assay; settings: RXF 393, 48 h
# SF-268 [2] = assay: Cytotoxicity against Homo sapiens (human) SF268 cells after 48 hr by sulforhodamine B assay; settings: SF-268, 48 h
# KM12 = assay: Cytotoxicity against Homo sapiens (human) KM12 cells after 48 hr by sulforhodamine B assay; settings: KM12, 48 h
# HCT-15 = assay: Cytotoxicity against Homo sapiens (human) HCT15 cells after 48 hr by sulforhodamine B assay; settings: HCT-15, 48 h
# COLO 205 = assay: Cytotoxicity against Homo sapiens (human) COLO205 cells after 48 hr by sulforhodamine B assay; settings: COLO 205, 48 h
# NCI-H522 = assay: Cytotoxicity against Homo sapiens (human) NCI-H522 cells after 48 hr by sulforhodamine B assay; settings: NCI-H522, 48 h
# NCI-H460 [3] = assay: Cytotoxicity against Homo sapiens (human) NCI-H460 cells after 48 hr by sulforhodamine B assay; settings: NCI-H460, 48 h
# NCI-H322M = assay: Cytotoxicity against Homo sapiens (human) NCI-H322M cells after 48 hr by sulforhodamine B assay
# NCI-H23 = assay: Cytotoxicity against Homo sapiens (human) NCI-H23 cells after 48 hr by sulforhodamine B assay; settings: NCI-H23, 48 h
# NCI-H226 = assay: Cytotoxicity against Homo sapiens (human) NCI-H226 cells after 48 hr by sulforhodamine B assay; settings: NCI-H226, 48 h
# HOP-62 = assay: Cytotoxicity against Homo sapiens (human) HOP62 cells after 48 hr by sulforhodamine B assay; settings: HOP-62, 48 h
# HOP-92 = assay: Cytotoxicity against Homo sapiens (human) HOP92 cells after 48 hr by sulforhodamine B assay; settings: HOP-92, 48 h, read-out: LC50 (the source's name)
# MOLT-4 = assay: Cytotoxicity against Homo sapiens (human) MOLT4 cells after 48 hr by sulforhodamine B assay; settings: MOLT-4, 48 h
# CCRF-CEM = assay: Cytotoxicity against Homo sapiens (human) CCRF-CEM cells after 48 hr by sulforhodamine B assay
# SF-268 [4] = assay: Cytotoxicity against Homo sapiens (human) SF268 cells assessed as cell growth at 10^-4 M after 48 hr by […] assay; settings: SF-268, 48 h, read-out: Activity
# NCI-H460 [5] = assay: Cytotoxicity against Homo sapiens (human) NCI-H460 cells assessed as cell growth at 10^-4 M after 48 hr by Alamar blue assay; settings: NCI-H460, 48 h, read-out: Activity
# [6] = read-out: LC50 (the source's name)
smiles,measurement,setting,value
ClCc1cccc(Cn2cnc3ncnc(Cl)c32)c1,GI50,ACHN,1.86 µM
same,TGI,ACHN,3.54 µM
same,CC50,ACHN; [6],7.76 µM
same,GI50,786-0,2.04 µM
same,LC50,786-0,70.8 µM
same,TGI,786-0,4.07 µM
same,GI50,SK-OV-3,10.7 µM
same,LC50,SK-OV-3,8.12 µM
same,TGI,SK-OV-3,25.7 µM
same,GI50,UACC-62,2.18 µM
same,LC50 (concentration causing 50% net cell kill),UACC-62,38.9 µM
same,TGI,UACC-62,5.37 µM
same,GI50,SK-MEL-28,1.81 µM
same,LC50 (concentration killing 50% of cells),SK-MEL-28,42.6 µM
same,TGI,SK-MEL-28,3.54 µM
same,GI50,U-251,1.94 µM
same,LC50 (concentration killing 50% of cells),U-251,> 100 µM
same,TGI,U-251,3.98 µM
same,GI50,T47D,0.21 µM
same,LC50,T47D,2.88 µM
same,TGI,T47D,0.5 µM
same,GI50,MDA-MB-435,3.46 µM
same,LC50,MDA-MB-435,39.8 µM
same,TGI,MDA-MB-435,12.9 µM
same,GI50,BT-549,13.2 µM
same,LC50 (50% lethal concentration),BT-549,63.1 µM
same,TGI,BT-549,28.8 µM
same,GI50,Hs-578T,18.2 µM
same,LC50,Hs-578T,97.7 µM
same,TGI,Hs-578T,42.6 µM
same,GI50,[1],2.75 µM
same,LC50 (concentration killing 50% of cells),[1],81 µM
same,TGI,[1],9.77 µM
same,GI50,MDA-MB-231,1.73 µM
same,LC50,MDA-MB-231,6.76 µM
same,TGI,MDA-MB-231,3.38 µM
same,GI50,MCF7,1.58 µM
same,LC50 (concentration killing 50% of cells),MCF7,39 µM
same,TGI,MCF7,3.98 µM
same,GI50,UO-31,1.54 µM
same,LC50 (concentration causing 50% net cell kill),UO-31,26.9 µM
same,TGI,UO-31,3.09 µM
same,GI50,PC-3,2.13 µM
same,LC50 (concentration causing 50% cell kill),PC-3,63.1 µM
same,TGI,PC-3,5.37 µM
same,GI50,SN12C,7.07 µM
same,LC50 (50% lethal concentration),SN12C,6.16 µM
same,TGI,SN12C,20.4 µM
same,GI50,RXF 393,2.04 µM
same,TGI,RXF 393,17.4 µM
same,CC50,RXF 393; [6],47.9 µM
same,GI50,SF-268 [2],1.65 µM
same,TGI,SF-268 [2],3.46 µM
same,CC50,SF-268 [2]; [6],47.9 µM
same,GI50,KM12,1.86 µM
same,TGI,KM12,3.31 µM
same,CC50,KM12; [6],67.6 µM
same,GI50,HCT-15,1.94 µM
same,TGI,HCT-15,4.36 µM
same,CC50,HCT-15; [6],> 100 µM
same,GI50,COLO 205,2.63 µM
same,TGI,COLO 205,> 100 µM
same,CC50,COLO 205; [6],6.3 µM
same,GI50,NCI-H522,6.16 µM
same,TGI,NCI-H522,24 µM
same,CC50,NCI-H522; [6],> 100 µM
same,GI50,NCI-H460 [3],2.08 µM
same,TGI,NCI-H460 [3],4.46 µM
same,CC50,NCI-H460 [3]; [6],91.2 µM
same,GI50,NCI-H322M,1.99 µM
same,TGI,NCI-H322M,3.46 µM
same,CC50,NCI-H322M; [6],8.54 µM
same,GI50,NCI-H23,1.23 µM
same,TGI,NCI-H23,3.38 µM
same,CC50,NCI-H23; [6],5.88 µM
same,GI50,NCI-H226,3.16 µM
same,TGI,NCI-H226,8.7 µM
same,CC50,NCI-H226; [6],9.33 µM
same,GI50,HOP-62,2.18 µM
same,TGI,HOP-62,3.98 µM
same,CC50,HOP-62; [6],7.41 µM
same,CC50,HOP-92,52.5 µM
same,GI50,MOLT-4,10.7 µM
same,TGI,MOLT-4,29.5 µM
same,CC50,MOLT-4; [6],81.3 µM
same,GI50,CCRF-CEM,6.91 µM
same,TGI,CCRF-CEM,22.4 µM
same,CC50,CCRF-CEM; [6],60.2 µM
same,growth at 100 µM,SF-268 [4],0%
same,growth at 100 µM,NCI-H460 [5],0%

# Reference: ChEMBL document CHEMBL3044672, “N9- and N7-(Chloromethyl Phenymethyl)Chloropurine Derivatives from , '-Dichloroxylenes: Synthesis and Anticancer Activity” (2005)
